Assay results from patent US20240065302A1, “SWEETENER COMPOSITIONS COMPRISING MOGROSIDES AND USES THEREOF” (Firmenich Incorporated, priority 2021, published 2024).

Assays:
Assay type in all cases: in vivo, human
[1] = Expert panelists' comparison of mogrosides with stevia; conditions: with respect to Examples 4 and 5 (so in the source)
Method: (§1) A panel of flavorists at three locations evaluated lemon-lime beverage various mogrosides at a concentration of 600 ppm mogrosides for in-mouth attributes (peak sweetness, upfront sweetness, bitterness, and mouthfeel/thickness) and aftertaste attributes (sweet tastle linger), on a 0 to 10 scale. The in-mouth attributes were evaluated while holding the sample in the mouth, while the aftertaste attributes were evaluated after expectoration.
(§2) A panel of flavorists at three locations evaluated vanilla milk containing various mogrosides at a concentration of 400 ppm mogrosides for in-mouth attributes (peak sweetness, upfront sweetness, bitterness, and mouthfeel/thickness) and aftertaste attributes (sweet tastle linger), on a 0 to 10 scale. The in-mouth attributes were evaluated while holding the sample in the mouth, while the aftertaste attributes were evaluated after expectoration. The data was analyzed using Duncan's new multiple range test and the scores are provided in the data below in parentheses.

[2] = Additional sensory testing for lemon-flavored (lemon-lime) beverage (panel of flavorists); conditions: 600 ppm mogrosides, in-mouth, 0 to 10 scale
Method: as §1

[3] = Additional sensory testing for vanilla milk (panel of flavorists); conditions: 400 ppm mogrosides, in-mouth, 0 to 10 scale
Method: as §2

[4] = Sensory testing for sparkling orange beverage (panel of volunteers)
Method: (§3) A panel of volunteers evaluated siratose for in-mouth attributes (sweetness, delayed sweetness, sourness, bitterness, global flavor intensity, thickness/body, and astringence) and aftertaste (AT) attributes (lingering sweetness, overall off-taste intensity, licorice off-tast, bitterness off-taste, and mouth coating) on a 10-point scale. Two replicate session were conducted, with a 20 minute break between sessions. There was a 90 second delay between samples within a session. Panelists evaluated all samples in a first session and evaluated the samples again a second time in a second session. Control samples of Rebaudioside M (Reb M) were evaluated during all sessions as a control. Mogroside V was also evaluated and sensory data for mogroside V is provided.
(§4) Data analysis was performed using 2-way analysis of variance (ANOVA) with interaction using Tukey's HSD test. The data was normalized for each attribute according to average scores for Reb M.
A panel of volunteers evaluated a sparkling orange beverage containing siratose for in-mouth attributes and aftertaste attibutes according to the methods described in Example 1 above.

[5] = Sensory testing for apple drink (panel of volunteers); conditions: for Bitterness / Delayed Sweetness / Global Flavor Intensity / Sweetness / Thickness/Body: in-mouth, normalized to Reb M
Method: as §3, §4

[6] = Sensory testing for lemon-lime carbonated soft drink (panel of volunteers)
Method: as §3, §4
A panel of volunteers evaluated the siratose-containing lemon-lime carbonated soft drink for in-mouth attributes and aftertaste attributes according to the methods described in Example 1 above.

[7] = Sensory testing for vanilla milk (panel of volunteers); conditions: for Licorice Aftertaste / Lingering Sweetness / Mouth Coating / Overall Off-Taste: aftertaste
Method: as §3, §4
A panel of volunteers evaluated vanilla milk containing siratose for in-mouth attributes and aftertaste attributes according to the methods described in Example 1 above.

[8] = 250 ppm, aftertaste, 10-point scale, normalized
[9] = 250 ppm, in-mouth, 10-point scale, normalized
[10] = 250 ppm, aftertaste, 10-point scale
[11] = 500 ppm, aftertaste, 10-point scale
[12] = 600 ppm, aftertaste, 10-point scale, normalized
[13] = 600 ppm, in-mouth, 10-point scale, normalized
[14] = 200 ppm, 10-point scale, normalized
[15] = 200 ppm, in-mouth, 10-point scale, normalized
[16] = 400 ppm, 10-point scale, normalized
[17] = 400 ppm, in-mouth, 10-point scale, normalized

Molecule: C[C@H](CC[C@@H](O[C@@H]1O[C@H](CO[C@@H]2O[C@H](CO)[C@@H](O)[C@H](O)[C@H]2O)[C@@H](O)[C@H](O)[C@H]1O[C@@H]1O[C@H](CO)[C@@H](O)[C@H](O)[C@H]1O)C(C)(C)O)[C@H]1CC[C@@]2(C)[C@@H]3CC=C4[C@@H](CC[C@H](O[C@@H]5O[C@H](CO)[C@@H](O[C@@H]6O[C@H](CO)[C@@H](O)[C@H](O)[C@H]6O)[C@H](O)[C@H]5O)C4(C)C)[C@]3(C)[C@H](O)C[C@]12C [Isomogroside V]
- Aftertaste and mouthfeel compared with stevia (in words) [1]: lower licorice aftertaste and lower bitter aftertaste as compared with stevia while having a better mouthfeel

Molecule: C[C@H](CC[C@@H](O[C@@H]1O[C@H](CO[C@@H]2O[C@H](CO)[C@@H](O)[C@H](O)[C@H]2O)[C@@H](O)[C@H](O)[C@H]1O[C@@H]1O[C@H](CO)[C@@H](O)[C@H](O)[C@H]1O)C(C)(C)O)[C@H]1CC[C@@]2(C)[C@@H]3CC=C4[C@@H](CC[C@H](O[C@@H]5O[C@H](CO)[C@@H](O)[C@H](O)[C@H]5O)C4(C)C)[C@]3(C)[C@H](O)C[C@]12C [Siamenoside I]
- Peak Sweetness [2]: 6.571 (b)_
- Peak Sweetness [3]: 7.375 (a)_
- Aftertaste and mouthfeel compared with stevia (in words) [1]: lower licorice aftertaste and lower bitter aftertaste as compared with stevia while having a better mouthfeel

Molecule: C[C@H](CC[C@@H](O[C@@H]1O[C@H](CO[C@H]2O[C@H](CO)[C@@H](O)[C@H](O)[C@H]2O)[C@@H](O)[C@H](O)[C@H]1O[C@@H]1O[C@H](CO)[C@@H](O)[C@H](O)[C@H]1O)C(C)(C)O)[C@H]1CC[C@@]2(C)[C@]3(C)CC=C4[C@@H](CC[C@H](O[C@@H]5O[C@H](CO)[C@@H](O)[C@H](O)[C@H]5O)C4(C)C)[C@]3(C)[C@H](O)C[C@]12C [siratose]
- Off-taste and mouth coating compared with Reb M (in words) [4]: slightly lower off-taste and higher mouth coating than Reb M
- Sweetness compared with mogroside V (in words) [4]: greater sweetness than mogroside V
- Licorice Aftertaste [4, 8]: 2.9
- Lingering Sweetness [4, 8]: 4.4
- Mouth Coating [4, 8]: 3.0
- Overall Off-Taste [4, 8]: 3.1
- Delayed Sweetness [4, 9]: 4.1
- Sweetness [4, 9]: 5.8
- Sweetness and delayed sweetness compared with control Reb M (in words) ([4]; same concentration): high sweetness score and an increased delayed sweetness compared to the control Reb M samples
- Sensory profile compared with mogroside V (in words) [5]: sweeter, less bitter, and have a higher global flavor intensity than mogroside V, while having a lower overall off taste, licorice aftertaste, and bitterness aftertaste
- Bitterness Aftertaste [5, 10]: 1.1
- Licorice Aftertaste [5, 10]: 1.8
- Lingering Sweetness [5, 10]: 3.4
- Overall Off-Taste [5, 10]: 2.8
- Bitterness ([5]; 250 ppm, 10-point scale): 1.5
- Delayed Sweetness ([5]; 250 ppm, 10-point scale): 2.2
- Global Flavor Intensity ([5]; 250 ppm, 10-point scale): 3.7
- Sweetness ([5]; 250 ppm, 10-point scale): 4.2
- Thickness/Body ([5]; 250 ppm, 10-point scale): 1.5
- Licorice Aftertaste [5, 11]: 2.8
- Lingering Sweetness [5, 11]: 5.2
- Mouth Coating [5, 11]: 2.6
- Overall Off-Taste [5, 11]: 4.0
- Bitterness ([5]; 500 ppm, 10-point scale): 1.7
- Delayed Sweetness ([5]; 500 ppm, 10-point scale): 3.4
- Global Flavor Intensity ([5]; 500 ppm, 10-point scale): 4.6
- Sweetness ([5]; 500 ppm, 10-point scale): 5.9
- Thickness/Body ([5]; 500 ppm, 10-point scale): 1.8
- Sensory profile compared with control Reb M (in words) ([5]; same concentration): high sweetness score and similar in-mouth and aftertaste attributes as the control Reb M samples
- Sensory profile compared with mogroside V (in words) [6]: higher sweetness and global flavor intensity as compared to mogroside V while having a similar aftertaste profile
- Bitterness Aftertaste [6, 12]: 1.3
- Licorice Aftertaste [6, 12]: 2.3
- Lingering Sweetness [6, 12]: 4.3
- Overall Off-Taste [6, 12]: 3.9
- Bitterness [6, 13]: 2.1
- Delayed Sweetness [6, 13]: 3.9
- Global Flavor Intensity [6, 13]: 4.5
- Sweetness [6, 13]: 6.0
- Sensory profile compared with control Reb M (in words) ([6]; same concentration): high sweetness score and similar in-mouth and aftertaste attributes as the control Reb M samples
- Sensory profile compared with Reb M (in words) ([7]; 200 ppm and 400 ppm): improved sweetness as comparted to Reb M
- Sensory profile compared with mogroside V (in words) ([7]; 200 ppm and 400 ppm): sweeter than mogroside V at both 200 ppm and 400 ppm, while having a similar aftertaste profile
- Licorice Aftertaste [7, 14]: 1.0
- Lingering Sweetness [7, 14]: 3.1
- Mouth Coating [7, 14]: 3.2
- Overall Off-Taste [7, 14]: 1.9
- Astringence [7, 15]: 0.5
- Delayed Sweetness [7, 15]: 1.7
- Fattiness [7, 15]: 3.1
- Sourness [7, 15]: 0.5
- Sweetness [7, 15]: 5.6
- Licorice Aftertaste [7, 16]: 1.1
- Lingering Sweetness [7, 16]: 4.0
- Mouth Coating [7, 16]: 0.8
- Overall Off-Taste [7, 16]: 2.4
- Astringence [7, 17]: 0.5
- Bitterness [7, 17]: 0.6
- Delayed Sweetness [7, 17]: 2.3
- Fattiness [7, 17]: 3.6
- Global Flavor Intensity [7, 17]: 5.1
- Sourness [7, 17]: 0.5
- Sweetness [7, 17]: 7.1
- Aftertaste and mouthfeel compared with stevia (in words) [1]: lower licorice aftertaste and lower bitter aftertaste as compared with stevia while having a better mouthfeel

Molecule: Isomogroside IVE
- Bitterness [3]: 1.313
- Aftertaste and mouthfeel compared with stevia (in words) [1]: lower licorice aftertaste and lower bitter aftertaste as compared with stevia while having a better mouthfeel
